Marks after values point to notes of the source that are not given here.
Legend:
[1] = Liver microsome protein binding, rat; type: in vitro ADME; conditions: liver microsomes, pH 7.4
[2] = test system: CYP1A2-mediated metabolism of MT; assay: Static DDI model prediction of CBD's impact on MT exposure, rat; conditions: input of static DDI model
Source text: (§1) (AUC when co-administered with the inhibitor) to AUC[contr] (AUC without the inhibitor).

[3] = Plasma protein binding (rapid equilibrium dialysis), mouse; type: in vitro ADME; conditions: pH 7.4
Description: (§3) After incubation for 20 min, a portion of the whole blood was centrifuged at 2500× g for 10 min at 4 °C to separate plasma; another portion of the whole blood was subjected to three cycles of freeze–thawing and ultrasonicated for 10 min to disrupt cells. Equal volumes of plasma and whole blood samples were added to the whole blood and plasma specimens, respectively, followed by protein precipitation with acetonitrile containing an internal standard (IS). […] The RED inserts were placed in the matching incubation plate: 200 µL of drug-containing matrix were added to the sample chamber, and 400 µL of PBS buffer (pH: 7.4) were added to the buffer chamber. After incubation in a constant-temperature shaking incubator for 6 h (37 °C), samples from the sample chamber and buffer chamber were diluted 1:1 with PBS or matrix, respectively, and proteins were precipitated with acetonitrile containing IS.

[4] = Pharmacokinetics of MT, 6-HMT and CBD in beagles after oral administration; conditions: male, beagle, dog, in vivo, po, 3 mg/kg, p.o.; for AUC(0-t) / AUC(0-inf) / Cmax / MRT last / Tmax: beagles; for MRT last: MRT(0–t); for half-life: t1/2, beagles
Description: Twelve male healthy adult beagles (weighing 10 ± 2 kg) were randomly divided into two groups. […] The drugs were dissolved in a physiological saline solution containing 5% castor oil, with an administration volume of 2 mL/kg. Blood samples were collected at the time points of pre-administration and 0.083, 0.25, 0.5, 0.75, 1, 1.5, 2, 4, 6, 8, and 12 h post-administration.
(§2) The column temperature was set at 40 °C.

[5] = Plasma protein binding (rapid equilibrium dialysis), human; type: in vitro ADME; conditions: pH 7.4, read-out: Plasma Protein Binding (converted)
Description: as §3

[6] = Brain tissue protein binding, rat; type: in vitro ADME; conditions: pH 7.4
Description: as §3

[7] = Pharmacokinetics of MT and CBD in rats after pre-administration of ABT
Description: Twelve SD rats were randomly divided into two groups. Both groups were first given an intragastric administration of 1-aminobenzotriazole (ABT) at a dose of 200 mg/kg. […] The administration volume for all groups was 5 mL/kg. […] Approximately 50 μL of venous blood were collected into heparin sodium anticoagulant tubes and placed on ice. The sample processing and storage methods were the same as described previously.
Subsequently, the resultant mixture was vortexed for 1 minute and centrifuged at 4 °C for 10 min at 18,800× g. […] The lowest limit of quantification (LLOQ) was established at 2 ng/mL.
Kromasil 100-5-C8 (2.1 × 50 mm) was selected for the separation of samples. The mobile phase consisted of solvent A (water with 0.1% formic acid and 5 mM ammonium acetate) and solvent B (methanol with 0.1% formic acid). […] The column temperature was set at 40 °C. The two eluents were 0.1% formic acid and 5 mM ammonium acetate in water (A) and 0.1% formic acid in methanol (B). […] The main mass spectrometry detection parameters were: dry gas 10 L/min, heated gas 10 L/min, collision gas 270 kPa, ion source temperature 300 °C, desolvation temperature 250 °C, and heating module temperature 400 °C.
Pharmacokinetic parameters: GraphPad Prism 10.1 software was utilized to draw the curves. Noncompartmental analysis was selected to calculate the major PK parameters, including clearance (CL), volume (V), half-life (t1/2), peak concentration (Cmax), and area under the curve (AUC), using WinNonlin 8.1.

[8] = Pharmacokinetics of MT, 6-HMT and CBD in SD rats (i.v. and oral); conditions: for MRT last: MRT(0–t)
Description: The drugs were dissolved in the same manner as described previously, with an administration volume of 5 mL/kg for all groups. Blood samples were collected at the time points of pre-administration and 0.033 (only for the intravenous administration group), 0.083, 0.25, 0.5, 0.75, 1, 1.5, 2, 4, 6, 8, and 12 h post-administration.
as §2

[9] = Plasma protein binding (rapid equilibrium dialysis), rat; type: in vitro ADME; conditions: plasma, pH 7.4
Description: as §3

[10] = biological target: T1, PEPT1 (Homo sapiens, UniProt P46059); assay: Uptake and uptake inhibition in MDCK/hPEPT1 cell model; type: cell-based; conditions: 4 °C and 37 °C
T1 construct: host or cells: MDCK
T1 sequence (P46059 1-708): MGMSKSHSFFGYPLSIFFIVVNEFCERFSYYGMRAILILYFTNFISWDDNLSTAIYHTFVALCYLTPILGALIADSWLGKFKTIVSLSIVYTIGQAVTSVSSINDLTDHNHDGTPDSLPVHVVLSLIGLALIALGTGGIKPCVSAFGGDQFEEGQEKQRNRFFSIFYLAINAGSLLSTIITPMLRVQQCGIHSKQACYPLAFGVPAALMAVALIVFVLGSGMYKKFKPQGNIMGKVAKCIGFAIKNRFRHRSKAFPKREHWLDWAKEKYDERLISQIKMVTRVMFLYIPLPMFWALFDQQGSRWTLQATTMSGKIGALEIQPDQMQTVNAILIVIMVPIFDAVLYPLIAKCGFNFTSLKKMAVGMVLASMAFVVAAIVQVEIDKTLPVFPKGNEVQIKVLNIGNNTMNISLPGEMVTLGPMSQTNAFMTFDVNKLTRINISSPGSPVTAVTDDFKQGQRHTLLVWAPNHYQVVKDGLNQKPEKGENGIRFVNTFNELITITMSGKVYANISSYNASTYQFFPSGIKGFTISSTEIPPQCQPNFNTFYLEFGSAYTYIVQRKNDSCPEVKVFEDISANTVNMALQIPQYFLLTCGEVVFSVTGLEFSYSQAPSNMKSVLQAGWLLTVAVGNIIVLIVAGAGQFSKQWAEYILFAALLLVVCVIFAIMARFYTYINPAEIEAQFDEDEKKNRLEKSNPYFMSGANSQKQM
Description: MDCK-PEPT1 cells were seeded into 24-well plates at a density of approximately 5 × 10^5 cells per well. When the cell confluency reached 60–70%, the culture medium was aspirated, and the cells were rinsed twice with HBSS pre-warmed to 37 °C. […] After incubation at 37 °C for 10 min, the buffer was aspirated, and ice-cold HBSS was immediately added to terminate the reaction, followed by rinsing three times. After drying the residual liquid, 200 μL of pure water were added to each well, and the cells were lysed by repeated freezing–thawing in liquid nitrogen three times. The cell lysates were collected, and the protein content was determined by the BCA method.
Cell uptake assessment: The concentration of the analyte in cells was corrected using the protein concentration of the cell lysate in each well.(4) Conclysate=Concdrug/ConcProtein
The uptake rate (U, pmol/mg/min) of the compound was calculated following Formula (5).(5) U=Clysate/P×t where Clysate is the amount of drug in the cell lysate (ng); P is cellular protein content (mg); t is incubation time (min).
The uptake ratio of the compound was calculated following Formula (6)(6) UR=U/ UMOCK where UMOCK is the uptake rate in MOCK-MDCK cells (pmol/mg/min).
The inhibition ratio was calculated following Formula (7)(7) IR=(1−Uwith inhibitor−Umock with inhibitor/Uwithout inhibitor−Umock without inhibitor)×100%

[11] = Liver microsome protein binding, dog; type: in vitro ADME; conditions: beagle, liver microsomes, pH 7.4
Description: as §3

[12] = Liver microsome protein binding, human; type: in vitro ADME; conditions: liver microsomes, pH 7.4
Description: as §3

[13] = Plasma protein binding (rapid equilibrium dialysis), dog; conditions: beagle, dog, plasma, pH 7.4
Description: as §3

[14] = test system: CYP1A2-mediated metabolism of MT; assay: Static DDI model prediction of CBD's impact on MT exposure, beagle; set-up: species or system beagle dog; conditions: input of static DDI model
Source text: as §1

[15] = Sprague-Dawley, rat, in vivo, po, 5 mg/kg
[16] = male, Sprague-Dawley, rat, in vivo, po, 5 mg/kg, rats, p.o., MT + CBD (5 + 5) mg/kg
[17] = male, Sprague-Dawley, rat, in vivo, po, 5 mg/kg, rats, p.o., MT + CBD (5 + 20) mg/kg
[18] = male, Sprague-Dawley, rat, in vivo, po, 5 mg/kg, rats, p.o., MT + Vehicle 5 mg/kg

COc1ccc2[nH]cc(CCNC(C)=O)c2c1 [MT, Melatonin]
fraction unbound at 6 h [1]: 0.972 | fm(CYP1A2), proportion of MT metabolized by CYP1A2 [2]: 0.92 | fraction unbound at 6 h [3]: 0.451 | AUC(0-t) ([4]; MT + CBD (3 + 3) mg/kg): 2540 ng·h/mL | AUC(0-t) ([4]; MT + Vehicle 3 mg/kg): 602 ng·h/mL | AUC(0-inf) ([4]; MT + CBD (3 + 3) mg/kg): 2550 ng·h/mL | AUC(0-inf) ([4]; MT + Vehicle 3 mg/kg): 612 ng·h/mL | Cmax ([4]; MT + CBD (3 + 3) mg/kg): 1360 ng/mL | Cmax ([4]; MT + Vehicle 3 mg/kg): 1080 ng/mL | MRT last ([4]; MT + CBD (3 + 3) mg/kg): 99.6 min | MRT last ([4]; MT + Vehicle 3 mg/kg): 30 min | Tmax ([4]; MT + CBD (3 + 3) mg/kg): 42.6 min | Tmax ([4]; MT + Vehicle 3 mg/kg): 13.2 min | half-life ([4]; MT + CBD (3 + 3) mg/kg): 55.2 min | half-life ([4]; MT + Vehicle 3 mg/kg): 19.8 min | fraction unbound at 6 h [5]: 0.388 | fraction unbound at 6 h [6]: 0.315 | AUC of MT reduced by co-administration of CBD ([7]; ABT-treated rats): 2.29 fold | Cmax of MT reduced by co-administration of CBD ([7]; ABT-treated rats): 2.3 fold | AUC(0-t) [7, 15]: 8840 ng·h/mL | Cmax [7, 15]: 2100 ng/mL | Tmax [7, 15]: 30 min | half-life [7, 15]: 78.6 min | AUC(0-t) ([8]; male, Sprague-Dawley, rat, in vivo, iv, 1 mg/kg, AUC(0–t), rats, i.v., MT + CBD (1 + 1) mg/kg): 260 ng·h/mL | MRT last ([8]; male, Sprague-Dawley, rat, in vivo, iv, 1 mg/kg, rats, i.v., MT + CBD (1 + 1) mg/kg): 10.2 min | bioavailability ([8]; male, Sprague-Dawley, rat, in vivo, po, 5 mg/kg): 20.5% | AUC(0-t) ([8]; male, Sprague-Dawley, rat, in vivo, po, 5 mg/kg, AUC(0–1h), rats, p.o., MT + CBD (5 + 5) mg/kg): 114 ng·h/mL | AUC(0-t) ([8]; male, Sprague-Dawley, rat, in vivo, po, 5 mg/kg, AUC(0–1h), rats, p.o., MT + CBD (5 + 20) mg/kg): 65.2 ng·h/mL | AUC(0-t) ([8]; male, Sprague-Dawley, rat, in vivo, po, 5 mg/kg, AUC(0–1h), rats, p.o., MT + Vehicle 5 mg/kg): 241 ng·h/mL | AUC(0-t) ([8]; male, Sprague-Dawley, rat, in vivo, po, 5 mg/kg, AUC(0–t), rats, p.o., MT + CBD (5 + 5) mg/kg): 138 ng·h/mL | AUC(0-t) ([8]; male, Sprague-Dawley, rat, in vivo, po, 5 mg/kg, AUC(0–t), rats, p.o., MT + CBD (5 + 20) mg/kg): 121 ng·h/mL | AUC(0-t) ([8]; male, Sprague-Dawley, rat, in vivo, po, 5 mg/kg, AUC(0–t), rats, p.o., MT + Vehicle 5 mg/kg): 267 ng·h/mL | Cmax [8, 16]: 212 ng/mL | Cmax [8, 17]: 99 ng/mL | Cmax [8, 18]: 588 ng/mL | MRT last [8, 16]: 39 min | MRT last [8, 17]: 79.8 min | MRT last [8, 18]: 40.2 min | Tmax [8, 16]: 19.8 min | Tmax [8, 17]: 8.4 min | Tmax [8, 18]: 10.2 min | effect of co-administered MT on pharmacokinetic parameters of CBD ([8]; rats, p.o., CBD 20 mg/kg with MT 0, 5 or 20 mg/kg): does not produce obvious pharmacokinetic-based interactions with CBD | t1/2 ([8]; rats, p.o., MT + CBD (5 + 5) mg/kg): 0.66 (0.14) h | t1/2 ([8]; rats, p.o., MT + CBD (5 + 20) mg/kg): 1.80 (0.94) * h | MT total exposure with CBD, as percent of MT alone ([8]; rats, p.o., high CBD dose): 45% | fraction unbound at 6 h [9]: 0.425 | uptake rate of MT, MOCK cells vs transfected cells [10]: no difference | fraction unbound at 6 h [11]: 0.78 | fraction unbound at 6 h [12]: 0.979 | fraction unbound at 6 h [13]: 0.364 | fm(CYP1A2), proportion of MT metabolized by CYP1A2 [14]: 0.92

Reference: paper PMC12845078 (Pharmaceuticals, 2025)
